Results as given in paper PMC9284491 (Nature Communications, 2022).
Entries after “also recorded” stand apart in the source; their conditions may differ.

Assay: Treatment-emergent adverse events (MedDRA, NCI-CTCAE v4.03), safety populations
Format: in vivo, human
Description: Overall safety in Parts A and B was assessed by tabulating TEAEs, coded using the Medical Dictionary for Regulatory Activities (MedDRA) version 22.1, and graded according to NCI-CTCAE v4.03 criteria. TEAEs were classified as related or unrelated to amcenestrant therapy based upon the local investigating physician’s clinical judgment. The safety population included all patients exposed to at least one dose of the study treatment. Results were analyzed using descriptive statistics.

Structure (SMILES): O=C(O)c1ccc2c(c1)CCCC(c1ccc(Cl)cc1Cl)=C2c1ccc(O[C@H]2CCN(CCCF)C2)cc1 [amcenestrant, 6-(2,4-Dichlorophenyl)−5-[4-[(3S)−1-(3-fluoropropyl)pyrrolidin-3-yl]oxyphenyl]−8,9-dihydro-7H-benzo[7]annulene-2-carboxylic acid]
- Headache, Treatment-related TEAEs, All Grades (Part B, 400 mg QD (N = 49)): 0 n (%)
- Headache, Treatment-related TEAEs, Grade 1 (Part B, 400 mg QD (N = 49)): 0 n (%)
- Headache, Treatment-related TEAEs, Grade 2 (Part B, 400 mg QD (N = 49)): 0 n (%)
- Headache, Treatment-related TEAEs, Grade ≥3 (Part B, 400 mg QD (N = 49)): 0 n (%)
- Hot flush, TEAEs, All grades (Part B, 400 mg QD (N = 49)): 7 (14.3) n (%)
- Hot flush, TEAEs, Grade 1 (Part B, 400 mg QD (N = 49)): 5 (10.2) n (%)
- Hot flush, TEAEs, Grade 2 (Part B, 400 mg QD (N = 49)): 2 (4.1) n (%)
- Hot flush, TEAEs, Grade ≥3 (Part B, 400 mg QD (N = 49)): 0 n (%)
- Hot flush, Treatment-related TEAEs, All Grades (Part B, 400 mg QD (N = 49)): 5 (10.2) n (%)
- Hot flush, Treatment-related TEAEs, Grade 1 (Part B, 400 mg QD (N = 49)): 5 (10.2) n (%)
- Hot flush, Treatment-related TEAEs, Grade 2 (Part B, 400 mg QD (N = 49)): 0 n (%)
- Hot flush, Treatment-related TEAEs, Grade ≥3 (Part B, 400 mg QD (N = 49)): 0 n (%)
- Hypertension, TEAEs, All grades (Part B, 400 mg QD (N = 49)): 4 (8.2) n (%)
- Hypertension, TEAEs, Grade 1 (Part B, 400 mg QD (N = 49)): 0 n (%)
- Hypertension, TEAEs, Grade 2 (Part B, 400 mg QD (N = 49)): 4 (8.2) n (%)
- Hypertension, TEAEs, Grade ≥3 (Part B, 400 mg QD (N = 49)): 0 n (%)
- Hypertension, Treatment-related TEAEs, All Grades (Part B, 400 mg QD (N = 49)): 1 (2.0) n (%)
- Hypertension, Treatment-related TEAEs, Grade 1 (Part B, 400 mg QD (N = 49)): 0 n (%)
- Hypertension, Treatment-related TEAEs, Grade 2 (Part B, 400 mg QD (N = 49)): 1 (2.0) n (%)
- Hypertension, Treatment-related TEAEs, Grade ≥3 (Part B, 400 mg QD (N = 49)): 0 n (%)
- Nasopharyngitis, TEAEs, All grades (Part B, 400 mg QD (N = 49)): 3 (6.1) n (%)
- Nasopharyngitis, TEAEs, Grade 1 (Part B, 400 mg QD (N = 49)): 3 (6.1) n (%)
- Nasopharyngitis, TEAEs, Grade 2 (Part B, 400 mg QD (N = 49)): 0 n (%)
- Nasopharyngitis, TEAEs, Grade ≥3 (Part B, 400 mg QD (N = 49)): 0 n (%)
- Nasopharyngitis, Treatment-related TEAEs, All Grades (Part B, 400 mg QD (N = 49)): 0 n (%)
- Nasopharyngitis, Treatment-related TEAEs, Grade 1 (Part B, 400 mg QD (N = 49)): 0 n (%)
- Nasopharyngitis, Treatment-related TEAEs, Grade 2 (Part B, 400 mg QD (N = 49)): 0 n (%)
- Nasopharyngitis, Treatment-related TEAEs, Grade ≥3 (Part B, 400 mg QD (N = 49)): 0 n (%)
- Nausea, TEAEs, All grades (Part B, 400 mg QD (N = 49)): 11 (22.4) n (%)
- Nausea, TEAEs, Grade 1 (Part B, 400 mg QD (N = 49)): 9 (18.4) n (%)
- Nausea, TEAEs, Grade 2 (Part B, 400 mg QD (N = 49)): 1 (2.0) n (%)
- Nausea, TEAEs, Grade ≥3 (Part B, 400 mg QD (N = 49)): 1 (2.0) n (%)
- Nausea, Treatment-related TEAEs, All Grades (Part B, 400 mg QD (N = 49)): 2 (4.1) n (%)
- Nausea, Treatment-related TEAEs, Grade 1 (Part B, 400 mg QD (N = 49)): 2 (4.1) n (%)
- Nausea, Treatment-related TEAEs, Grade 2 (Part B, 400 mg QD (N = 49)): 0 n (%)
- Nausea, Treatment-related TEAEs, Grade ≥3 (Part B, 400 mg QD (N = 49)): 0 n (%)
- Pain in extremity, TEAEs, All grades (Part B, 400 mg QD (N = 49)): 3 (6.1) n (%)
- Pain in extremity, TEAEs, Grade 1 (Part B, 400 mg QD (N = 49)): 2 (4.1) n (%)
- Pain in extremity, TEAEs, Grade 2 (Part B, 400 mg QD (N = 49)): 1 (2.0) n (%)
- Pain in extremity, Treatment-related TEAEs, All Grades (Part B, 400 mg QD (N = 49)): 0 n (%)
- Pain in extremity, Treatment-related TEAEs, Grade 1 (Part B, 400 mg QD (N = 49)): 0 n (%)
- Pain in extremity, Treatment-related TEAEs, Grade 2 (Part B, 400 mg QD (N = 49)): 0 n (%)
- Pain in extremity, Treatment-related TEAEs, Grade ≥3 (Part B, 400 mg QD (N = 49)): 0 n (%)
- Paresthesia, TEAEs, All grades (Part B, 400 mg QD (N = 49)): 3 (6.1) n (%)
- Paresthesia, TEAEs, Grade 1 (Part B, 400 mg QD (N = 49)): 3 (6.1) n (%)
- Paresthesia, TEAEs, Grade 2 (Part B, 400 mg QD (N = 49)): 0 n (%)
- Paresthesia, TEAEs, Grade ≥3 (Part B, 400 mg QD (N = 49)): 0 n (%)
- Paresthesia, Treatment-related TEAEs, All Grades (Part B, 400 mg QD (N = 49)): 1 (2.0) n (%)
- Paresthesia, Treatment-related TEAEs, Grade 1 (Part B, 400 mg QD (N = 49)): 1 (2.0) n (%)
- Paresthesia, Treatment-related TEAEs, Grade 2 (Part B, 400 mg QD (N = 49)): 0 n (%)
- Paresthesia, Treatment-related TEAEs, Grade ≥3 (Part B, 400 mg QD (N = 49)): 0 n (%)
- Pyrexia, TEAEs, All grades (Part B, 400 mg QD (N = 49)): 4 (8.2) n (%)
- Pyrexia, TEAEs, Grade 1 (Part B, 400 mg QD (N = 49)): 3 (6.1) n (%)
- Pyrexia, TEAEs, Grade 2 (Part B, 400 mg QD (N = 49)): 1 (2.0) n (%)
- Pyrexia, TEAEs, Grade ≥3 (Part B, 400 mg QD (N = 49)): 0 n (%)
- Pyrexia, Treatment-related TEAEs, All Grades (Part B, 400 mg QD (N = 49)): 0 n (%)
- Pyrexia, Treatment-related TEAEs, Grade 1 (Part B, 400 mg QD (N = 49)): 0 n (%)
- Pyrexia, Treatment-related TEAEs, Grade 2 (Part B, 400 mg QD (N = 49)): 0 n (%)
- Pyrexia, Treatment-related TEAEs, Grade ≥3 (Part B, 400 mg QD (N = 49)): 0 n (%)
- Rhinitis allergic, TEAEs, All grades (Part B, 400 mg QD (N = 49)): 3 (6.1) n (%)
- Rhinitis allergic, TEAEs, Grade 1 (Part B, 400 mg QD (N = 49)): 2 (4.1) n (%)
- Rhinitis allergic, TEAEs, Grade 2 (Part B, 400 mg QD (N = 49)): 1 (2.0) n (%)
- Rhinitis allergic, TEAEs, Grade ≥3 (Part B, 400 mg QD (N = 49)): 0 n (%)
- Rhinitis allergic, Treatment-related TEAEs, All Grades (Part B, 400 mg QD (N = 49)): 0 n (%)
- Rhinitis allergic, Treatment-related TEAEs, Grade 1 (Part B, 400 mg QD (N = 49)): 0 n (%)
- Rhinitis allergic, Treatment-related TEAEs, Grade 2 (Part B, 400 mg QD (N = 49)): 0 n (%)
- Rhinitis allergic, Treatment-related TEAEs, Grade ≥3 (Part B, 400 mg QD (N = 49)): 0 n (%)
- Urinary tract infection, TEAEs, All grades (Part B, 400 mg QD (N = 49)): 5 (10.2) n (%)
- Urinary tract infection, TEAEs, Grade 1 (Part B, 400 mg QD (N = 49)): 0 n (%)
- Urinary tract infection, TEAEs, Grade 2 (Part B, 400 mg QD (N = 49)): 5 (10.2) n (%)
- Urinary tract infection, TEAEs, Grade ≥3 (Part B, 400 mg QD (N = 49)): 0 n (%)
- Urinary tract infection, Treatment-related TEAEs, All Grades (Part B, 400 mg QD (N = 49)): 1 (2.0) n (%)
- Urinary tract infection, Treatment-related TEAEs, Grade 1 (Part B, 400 mg QD (N = 49)): 0 n (%)
- Urinary tract infection, Treatment-related TEAEs, Grade 2 (Part B, 400 mg QD (N = 49)): 1 (2.0) n (%)
- Urinary tract infection, Treatment-related TEAEs, Grade ≥3 (Part B, 400 mg QD (N = 49)): 0 n (%)
- Vomiting, TEAEs, All grades (Part B, 400 mg QD (N = 49)): 14 (28.6) n (%)
- Vomiting, TEAEs, Grade 1 (Part B, 400 mg QD (N = 49)): 10 (20.4) n (%)
- Vomiting, TEAEs, Grade 2 (Part B, 400 mg QD (N = 49)): 3 (6.1) n (%)
- Vomiting, TEAEs, Grade ≥3 (Part B, 400 mg QD (N = 49)): 1 (2.0) n (%)
- Vomiting, Treatment-related TEAEs, All Grades (Part B, 400 mg QD (N = 49)): 4 (8.2) n (%)
- Vomiting, Treatment-related TEAEs, Grade 1 (Part B, 400 mg QD (N = 49)): 4 (8.2) n (%)
- Vomiting, Treatment-related TEAEs, Grade 2 (Part B, 400 mg QD (N = 49)): 0 n (%)
- Vomiting, Treatment-related TEAEs, Grade ≥3 (Part B, 400 mg QD (N = 49)): 0 n (%)
- treatment-related TEAE arthralgia, patients (Part B, 400 mg QD (n = 49)): 8.2%
- treatment-related TEAE constipation, patients (Part B, 400 mg QD (n = 49)): 6.1%
- treatment-related TEAE gastroesophageal reflux disease, patients (Part B, 400 mg QD (n = 49)): 6.1%
- treatment-related TEAE hot flush, patients (Part B, 400 mg QD (n = 49)): 10.2%
- treatment-related TEAE vomiting, patients (Part B, 400 mg QD (n = 49)): 8.2%
- patients with serious TEAEs (Part B, 13/49): 26.5%
- patients with at least one Grade ≥3 TEAE (Part B, 16/49, none considered related to amcenestrant): 32.7%
- cardiac non-treatment-related TEAE (Part B, Grade 1 sinus bradycardia): One cardiac non-treatment-related TEAE was reported
- Grade ≥3 treatment-related adverse events (Parts A and B): No Grade ≥3 treatment-related adverse events; also recorded: no treatment-related TEAEs of Grade ≥3 occurred
- clinically significant cardiac or eye safety findings (Parts A and B): no clinically significant cardiac or eye safety findings were observed
